From patent US5565330A, “Method for removing N-terminal dipeptides from precursor polypeptides with dipeptidylaminopeptidase from Dictyostelium discoideum” (Eli Lilly and Company, priority 1995, dated 1996)

Assays:
[1] = Cleavage of blocked Benzyloxycarbonyl-RR-BNA (fluorescence); assay type: biochemical; details: 0.25 mM Z-RR-BNA, pH 3.5 or pH 5.0
Method: (§1) About 0.25 mM RR-BNA or 0.25 mM Benzyloxycarbonyl-RR-BNA (Z-RR-BNA) was prepared in either 100 mM acetic acid, pH 3.5, or 100 mM citrate buffer, pH 5.0. To 2 ml of substrate was added dDAP or bovine DAP-I (about 15 milliunit/ml solution). Rates of cleavage (monitoring fluorescence increase at 410 nm with excitation at 340 nm) were monitored. […] The pH optimum for cleavage of RR-BNA was probed by monitoring the rate of RR-BNA cleavage using a buffer system consisting of 50 mM acetic acid and 50 mM citrate. Various pHs were achieved using HCl or NaOH and 1.5 ml volumes were made 2.0 with 0.5 ml of a 1 mM stock solution of RR-BNA (final concentration of about 0.25 mM). dDAP was added (to about 15 mU/ml) and the rates of cleavage were determined.

Met(O)-Arg-hPI = experiment: Conversion of oxidized methionyl Met(O)-Arg-hPI (HPLC); assay type: biochemical, human; details: X is Arg, Phe and Tyr
Method: Met-Arg-Human Proinsulin (Met-Arg-hPI) was produced as an insoluble protein in the cytoplasm of E. coli. The insoluble protein was solubilized in 7M urea. The protein was purified by ion exchange chromatography. The Met-Arg-hPI was sulfitolyzed, solvent exchanged and folded in order to form the native disulfide bond pairs and native tertiary structure. The material was further purified using reverse phase chromatography.
The Met-Arg-hPI was about 24 mg/ml (in approximately 20 mM glycine buffer, pH 3.5). About 2.4 mg of this material was incubated with 0.19 milliunits of dDAP at pH 3.5. The reaction was allowed to proceed at room temperature. Periodically, aliquots were removed and diluted with 10% phosphoric acid. This material was injected onto a neutral reverse phase HPLC system to monitor for the disappearance of Met-Arg-hPI or Met(O)-Arg-hPI and the subsequent production of hPI. In addition, aliquots were diluted into an appropriate diluent to allow for HPLC monitoring of appearance of either the Met-Arg or Met(O)-Arg dipeptides. Approximately 60% of the Met-Arg-hPI was converted to hPI in 8 hours. […] The rate of cleavage of both substrates was similar. […] The ability of dDAP to cleave the oxidized Met(O)-X substrate has distinct processing advantages over enzymes unable to perform this cleavage.

[2] = Cleavage of Arg-Arg-β-naphthylamide (fluorescence); assay type: biochemical; details: 0.25 mM RR-BNA, pH 3.5 or pH 5.0, about 15 milliunit/ml enzyme
Method: as §1

bovine spleen DAP-I = target: T1, bovine spleen DAP-I (Bos taurus, UniProt Q3ZCJ8); experiment: Inhibition of GFpNA cleavage by sulfhydryl modifying agents; assay type: biochemical; details: 5 mM inhibitor, 15 minutes at room temperature, pH 7; then 4 mM GFpNA, pH 3.5, 37 degrees; read-out: decrease (inhibition) of bovine DAP-I's rate of cleavage of GFpNA
T1 construct: bovine spleen DAP-I; from tissue; host or cells: bovine spleen
T1 sequence (Q3ZCJ8 231-394 limits assumed): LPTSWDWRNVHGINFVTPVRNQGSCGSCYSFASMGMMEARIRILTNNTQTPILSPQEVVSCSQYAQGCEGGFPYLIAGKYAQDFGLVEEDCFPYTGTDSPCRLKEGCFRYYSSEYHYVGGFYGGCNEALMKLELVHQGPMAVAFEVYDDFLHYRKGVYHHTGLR
T1 sequence (Q3ZCJ8 395-463 limits assumed): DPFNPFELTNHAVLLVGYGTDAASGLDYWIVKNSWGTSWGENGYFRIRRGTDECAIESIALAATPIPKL
T1 sequence (Q3ZCJ8 25-143 limits assumed): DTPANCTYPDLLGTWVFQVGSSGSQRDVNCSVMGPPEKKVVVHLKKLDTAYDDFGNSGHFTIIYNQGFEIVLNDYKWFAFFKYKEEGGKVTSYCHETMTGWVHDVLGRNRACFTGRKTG
Method: (§2) dDAP activity is normally monitored by following the cleavage of the chromogenic substrate Gly-Phe para-nitroanilide (GF-pNA). Typically the assay is performed by diluting the enzyme 11 fold into 1.0 ml of 4 mM GFpNA adjusted to pH 3.5. The rate of cleavage of GF dipeptide was monitored at 37° C. by measuring the increase in absorbance at 405 nm. One unit of activity leads to a 0.90 OD change per minute under these conditions. Unit/ml estimates can be made assuming an extinction coefficient for free pNA of 9.9 mM-1 cm-1 at 405 nm.
(§3) The inhibition profile of dDAP toward the substrate GFpNA was compared to that of bovine DAP-I using iodoacetamide and potassium tetrathionate, sulfhydryl modifying agents known to inhibit the activity of DAP-I. Samples of dDAP or bovine spleen DAP-I were incubated for 15 minutes at room temperature in final concentrations of 0, 0.5, 5.0 or 50 mM of either inhibitor at pH 7 in 100 mM Tris buffer. The incubated solutions were then diluted 21-fold with 4 mM GFpNA, pH 3.5. The rate of cleavage was monitored by measuring the increase in absorbance at 405 nm at 37 degrees centigrade. Bovine DAP-I's rate of cleavage of GFpNA was decreased more than 90% by the exposure to 5 mM iodoacetamide and was 95% inhibited by 5 mM potassium tetrathionate.

dDAP = experiment: as above; assay type: biochemical, Dictyostelium discoideum; details: 0.5, 5.0 or 50 mM inhibitor, 15 minutes at room temperature, pH 7; then 4 mM GFpNA, pH 3.5
Method: as §2, §3

## bovine DAP-I: bovine spleen dipeptidylaminopeptidase I, comparison enzyme
[1]
  cleavage of blocked amino group Z-RR-BNA: unable to cleave
Met(O)-Arg-hPI
  cleavage of Met(O)-X-derivatives of hPI: unable to cleave
[2]
  cleavage of RR-BNA: unable to cleave

## O=S(=O)([O-])SSS(=O)(=O)[O-].[K+].[K+] [potassium tetrathionate]
Bovine spleen DAP-I
  inhibition at 5000 µM: 95%
dDAP
  inhibition of dDAP cleavage of GFpNA: no evidence of significant inhibition

## NC(=O)CI [iodoacetamide]
Bovine spleen DAP-I
  inhibition at 5000 µM: > 90%
dDAP
  inhibition of dDAP cleavage of GFpNA: no evidence of significant inhibition
